Experiment [1] addresses T1, human neutrophil elastase (HNE) (Homo sapiens, UniProt P08246).
T1 construct: purchased SERVA Electrophoresis GmbH, Heidelberg, Germany #20927.01
T1 sequence (P08246 30-267): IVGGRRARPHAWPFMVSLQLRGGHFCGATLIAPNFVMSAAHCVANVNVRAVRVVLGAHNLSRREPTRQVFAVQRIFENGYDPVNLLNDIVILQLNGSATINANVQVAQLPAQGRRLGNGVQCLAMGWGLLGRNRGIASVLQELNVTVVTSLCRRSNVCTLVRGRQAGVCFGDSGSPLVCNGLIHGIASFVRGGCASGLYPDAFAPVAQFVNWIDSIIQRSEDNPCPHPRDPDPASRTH
Put plainly: In vitro inhibition of HNE using a fluorogenic peptide substrate (continuous read-out signal, 384 MTP assay format). The experiment is classed as biochemical. The settings on record: substrate MeOSuc-Ala-Ala-Pro-Val-AMC, 37° C. Here is the method:
I. In vitro Enzyme Assays of Human Neutrophil Elastase (HNE)
assay buffer: 0.1 M HEPES-NaOH buffer pH 7.4, 0.5 M NaCl, 0.1% (w/v) bovine serum albumin;
suitable concentration (see below) of substrate in assay buffer;
suitable concentration of test compounds diluted with assay buffer from a 10 mM stock solution in DMSO.
The test solution is prepared by mixing 10 μl of test compound dilution, 20 μl of HNE enzyme dilution (final concentration 8-0.4 μU/ml, routinely 2.1 μU/ml) and 20 μl of substrate dilution (final concentration 1 mM-1 μM, routinely 20 μM), respectively. The solution is incubated for 0-2 hrs at 37° C. (routinely one hour). The florescence of the liberated AMC due to the enzymatic reaction is measured at 37° C. (TECAN spectra fluor plus plate reader). […] IC50 values are determined by RFU-versus-[I] plots. Km and Km(app.) values are determined by Lineweaver-Burk inverted to Ki values by Dixon plots.

Experiment [2] has as its system human polymorphonuclear cells (PMNs). Put plainly: In vitro PMN elastolysis assay (tritiated elastin). Type of experiment: cell-based. The settings on record: mean±s.e.m. Here is the method: In Vitro PMN Elastolysis Assay:
This assay is used to determine the elastolytic potential of human polymorphonuclear cells (PMNs) and assess the proportion of degradation due to neutrophil elastase [cf. Z. W. She et al., Am. J. Respir. Cell. Mol. Biol. 9, 386-392 (1993)].
Tritiated elastin, in suspension, is coated on to a 96 well plate at 10 μg per well. Test and reference [ZD-0892 (J. Med. Chem. 40, 1876-1885, 3173-3181 (1997), WO 95/21855) and α1 protease inhibitor (α1PI)] compounds are added to the wells at the appropriate concentrations. […] Porcine pancreatic elastase (1.3 μM is used as a positive control for the assay, and α1PI (1.2 μM) is used as the positive inhibitor of neutrophil elastase. The cellular control is PMNs without compound at each appropriate cell density. The cells plus compounds are incubated in a humidified incubator at 37° C. for 4 hours. The plates are centrifuged to allow the harvest of cell supernatant only. The supernatant is transferred in 75 μl volumes to corresponding wells of a 96 well Lumaplate™ (solid scintillant containing plates). The plates are dried until no liquid is visible in the wells and read in a beta counter for 3 minutes per well. […]
The compounds of this invention are evaluated for their inhibitory activity in this HNE-dependent model of neutrophil elastolysis.

As to `N#CC1=C(N)N(c2cccc(C(F)(F)F)c2)C(=O)NC1c1ccc(C#N)cc1` (stereo not shown) [Example 9, 6-Amino-4-(4-cyanophenyl)-2-oxo-1-[3-(trifluoromethyl)phenyl]-1,2,3,4-tetrahydro-5-pyrimidinecarbonitrile], the IC50 in experiment [1] was 40 nM. On the same count and under the same terms, then `CCOC(=O)C1=C(C)N(c2cccc(C(F)(F)F)c2)C(=O)N(C)C1c1ccc(C#N)cc1` (stereo not shown) [Example 14, Ethyl 4-(4-cyanophenyl)-3,6-dimethyl-2-oxo-1-[3-(trifluoromethyl)phenyl]-1,2,3,4-tetrahydro-5-pyrimidinecarboxylate], with 5 nM. Turning to `CCOC(=O)C1=C(C)N(c2cccc(C(F)(F)F)c2)C(=O)N(C(C)=O)C1c1ccc(C#N)cc1` (stereo not shown) [Example 15, Ethyl 3-acetyl-4-(4-cyanophenyl)-6-methyl-2-oxo-1-[3-(trifluoromethyl)phenyl]-1,2,3,4-tetrahydro-5-pyrimidinecarboxylate], the IC50 in experiment [1] was 8 nM. As for `CCOC(=O)C1=C(C)N(c2cccc(C(F)(F)F)c2)C(=O)N(C(=O)OCC)C1c1ccc(C#N)cc1` (stereo not shown) [Example 16, Diethyl 6-(4-cyanophenyl)-4-methyl-2-oxo-3-[3-(trifluoromethyl)phenyl]-3,6-di-hydro-1,5(2H)-pyrimidinedicarboxylate], the 50% inhibitory concentration (IC50) in experiment [1] was 10 nM.

With `CCOC(=O)C1=C(CN(CC)CC)N(c2cccc(C(F)(F)F)c2)C(=O)NC1c1ccc(C#N)cc1` (stereo not shown) [Example 20, Ethyl 4-(4-cyanophenyl)-6-[(diethylamino)methyl]-2-oxo-1-[3-(trifluoromethyl)-phenyl]-1,2,3,4-tetrahydro-5-pyrimidinecarboxylate], the concentration for half-maximal inhibition (IC50) in experiment [1] came to 700 nM.

As to `CCOC(=O)C1=C(C)N(c2cccc(C(F)(F)F)c2)C(=O)NC1c1ccc(C#N)nc1` (stereo not shown) [Example 24, Ethyl 4-(6-cyano-3-pyridinyl)-6-methyl-2-oxo-1-[3-(trifluoromethyl)phenyl]-1,2,3,4-tetrahydro-5-pyrimidinecarboxylate], the 50% inhibitory concentration (IC50) in experiment [1] was 13 nM. On to `CC1=C(C(=O)OCCc2ccncc2)C(c2ccc(C#N)cc2)NC(=O)N1c1cccc(C(F)(F)F)c1` (stereo not shown) [Example 28, 2-(4-Pyridinyl)ethyl 4-(4-cyanophenyl)-6-methyl-2-oxo-1-[3-(trifluoromethyl)phenyl]-1,2,3,4-tetrahydro-5-pyrimidinecarboxylate], for which the IC50 in experiment [1] came to 50 nM.

`CC1=C(C(=O)N(C)C)C(c2ccc(C#N)cc2)NC(=O)N1c1cccc(C(F)(F)F)c1` (stereo not shown) [Example 58]: the IC50 in experiment [1] was found to be 1100 nM. On the same count and under the same terms, the value for `CCOC(=O)C1=C(C)N(c2cccc(C(F)(F)F)c2)C(=O)N(CC(=O)N2CCN(C)CC2)C1c1ccc(C#N)cc1` (stereo not shown) [Example 60] was 5 nM. The same measure, in the same setting: the value for `CCOC(=O)C1=C(C)N(c2cccc(C(F)(F)F)c2)C(=O)NC1c1cccc([N+](=O)[O-])c1` (stereo not shown) [Example 103, Ethyl 6-methyl-4-(3-nitrophenyl)-2-oxo-1-[3-(trifluoromethyl)phenyl]-1,2,3,4-tetra-hydro-5-pyrimidinecarboxylate] was 60 nM; that for `CCOC(=O)C1=C(C)N(c2cccc(C(F)(F)F)c2)C(=O)NC1c1ccc([N+](=O)[O-])cc1` (stereo not shown) [Example 110, Ethyl 6-methyl-4-(4-nitrophenyl)-2-oxo-1-[3-(trifluoromethyl)phenyl]-1,2,3,4-tetra-hydropyrimidine-5-carboxylate] was 50 nM. `COc1ccc(C(=O)N[C@H](C(=O)N2CCC[C@H]2C(=O)N[C@H](C(=O)C(F)(F)F)C(C)C)C(C)C)cc1` [ZD-0892] gave an IC50 in experiment [2] (n=2 different donors at 3.6×10^5 cells per well) of 45.5 ± 7.75 nM.

On to “α1PI: α1 protease inhibitor, reference and positive inhibitor of neutrophil elastase”, for which the inhibition of elastolysis in experiment [2] (at 1.2 μM, n=3 different donors at 3.6×10^5 cells per well) turned out to be 83.46±3.97%.

In general, IC50 refers to the concentration at which inhibition is half-maximal.

Source of the values: patent publication US7687510B2, “Pyrimidinone derivatives as therapeutic agents against acute and chronic inflammatory, ischaemic and remodelling processes” (Bayer Healthcare AG, priority 2002, dated 2010).
